Read-outs that look alike come from different tables or passages of the source.
Legend:
cancer cells = experiment: Survival rate of cancer cells after test compound is added (flow cytometry, Annexin V-FITC/PI, clinical specimen); format: cell-based, patient; details: Homo sapiens, 18 h, read-out: Survival rate (%) All cells (Stem cells and ordinary cells)
How it was run: (§1)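 Survival was determined in clinical specimens after an 18 h compound treatment, using Annexin V-FITC/PI apoptosis staining and flow cytometry.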

cancer stem cells = experiment: Survival rate of cancer stem cells after test compound is added (flow cytometry, Annexin V-FITC/PI, clinical specimen); format: cell-based, patient; details: Homo sapiens, 18 h
How it was run: as §1

[1] = system: TNF-α secreted by synoviocyte; experiment: Content of TNF-α in culture supernatant of synoviocyte of RA model rats given test compound; format: in vivo; details: rat RA model, dose 30 mg/kg.2d; normal control 0.38 ± 0.027, NaCl 0.74 ± 0.098
How it was run: (§2)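 Read-out: TNF-α, PGE2 and IL-1β levels in supernatant from cultured synoviocytes. Cells came from RA model rats treated with compound at 30 mg/kg.2d, and from NaCl-treated and normal control rats.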

[2] = system: PGE2 secreted by synoviocyte; experiment: Content of PGE2 in culture supernatant of synoviocyte of RA model rats given test compound; format: in vivo; details: rat RA model, dose 30 mg/kg.2d; normal control 8.34 ± 1.29, NaCl 32.44 ± 10.32
How it was run: as §2

[3] = system: IL-1β secreted by synoviocyte; experiment: Content of IL-1β in culture supernatant of synoviocyte of RA model rats given test compound; format: in vivo; details: rat RA model, dose 30 mg/kg.2d; normal control 0.16 ± 0.034, NaCl 0.49 ± 0.136
How it was run: as §2

[4] = Head and neck squamous cell carcinomas

SMILES: C=C1CC[C@H]2C(=C)CC[C@H]3C(=C)C(=O)O[C@@H]3[C@@H]12 [Compound 25]
- viability at 10 µM (cancer cells; AML): 47%
- viability at 20 µM (cancer cells; AML): 44%
- viability at 10 µM (cancer cells; Brain glioma): 74%
- viability at 20 µM (cancer cells; Brain glioma): 58%
- viability at 10 µM (cancer cells; Brain tumor): 83%
- viability at 20 µM (cancer cells; Brain tumor): 73%
- viability at 10 µM (cancer cells; Breast cancer): 74%
- viability at 20 µM (cancer cells; Breast cancer): 65%
- viability at 10 µM (cancer cells; CLL): 57%
- viability at 20 µM (cancer cells; CLL): 45%
- viability at 10 µM (cancer cells; CML): 64%
- viability at 20 µM (cancer cells; CML): 49%
- viability at 10 µM (cancer cells; Children hepatoblastoma): 53%
- viability at 20 µM (cancer cells; Children hepatoblastoma): 47%
- viability at 10 µM (cancer cells; Colon adenocarcinoma): 55%
- viability at 20 µM (cancer cells; Colon adenocarcinoma): 49%
- viability at 10 µM (cancer cells; Colorectal cancer): 76%
- viability at 20 µM (cancer cells; Colorectal cancer): 66%
- viability at 10 µM (cancer cells; Gastric cancer): 54%
- viability at 20 µM (cancer cells; Gastric cancer): 47%
- viability at 10 µM (cancer cells; Gastrointestinal tumor): 63%
- viability at 20 µM (cancer cells; Gastrointestinal tumor): 52%
- viability at 10 µM (cancer cells; Glioma): 83%
- viability at 20 µM (cancer cells; Glioma): 74%
- viability at 10 µM (cancer cells; [4]): 67%
- viability at 20 µM (cancer cells; [4]): 58%
- viability at 10 µM (cancer cells; Laryngeal cancer): 74%
- viability at 20 µM (cancer cells; Laryngeal cancer): 64%
- viability at 10 µM (cancer cells; Liver cancer): 65%
- viability at 20 µM (cancer cells; Liver cancer): 54%
- viability at 10 µM (cancer cells; Lung adenocarcinoma): 57%
- viability at 20 µM (cancer cells; Lung adenocarcinoma): 46%
- viability at 10 µM (cancer cells; Lung cancer): 54%
- viability at 20 µM (cancer cells; Lung cancer): 37%
- viability at 10 µM (cancer cells; Malignant melanoma): 81%
- viability at 20 µM (cancer cells; Malignant melanoma): 66%
- viability at 10 µM (cancer cells; Nasopharynx cancer): 54%
- viability at 20 µM (cancer cells; Nasopharynx cancer): 48%
- viability at 10 µM (cancer cells; Ovarian cancer): 76%
- viability at 20 µM (cancer cells; Ovarian cancer): 67%
- viability at 10 µM (cancer cells; Pancreatic cancer): 64%
- viability at 20 µM (cancer cells; Pancreatic cancer): 48%
- viability at 10 µM (cancer cells; Prostate cancer): 56%
- viability at 20 µM (cancer cells; Prostate cancer): 44%
- viability at 10 µM (cancer cells; Retinoblastoma): 64%
- viability at 20 µM (cancer cells; Retinoblastoma): 54%
- viability at 10 µM (cancer cells; Skin cancer): 66%
- viability at 20 µM (cancer cells; Skin cancer): 58%
- viability at 10 µM (cancer stem cells; AML): 35%
- viability at 20 µM (cancer stem cells; AML): 26%
- viability at 10 µM (cancer stem cells; Brain glioma): 62%
- viability at 20 µM (cancer stem cells; Brain glioma): 47%
- viability at 10 µM (cancer stem cells; Brain tumor): 72%
- viability at 20 µM (cancer stem cells; Brain tumor): 66%
- viability at 10 µM (cancer stem cells; Breast cancer): 66%
- viability at 20 µM (cancer stem cells; Breast cancer): 52%
- viability at 10 µM (cancer stem cells; CLL): 46%
- viability at 20 µM (cancer stem cells; CLL): 34%
- viability at 10 µM (cancer stem cells; CML): 57%
- viability at 20 µM (cancer stem cells; CML): 36%
- viability at 10 µM (cancer stem cells; Children hepatoblastoma): 44%
- viability at 20 µM (cancer stem cells; Children hepatoblastoma): 39%
- viability at 10 µM (cancer stem cells; Colon adenocarcinoma): 42%
- viability at 20 µM (cancer stem cells; Colon adenocarcinoma): 35%
- viability at 10 µM (cancer stem cells; Colorectal cancer): 62%
- viability at 20 µM (cancer stem cells; Colorectal cancer): 55%
- viability at 10 µM (cancer stem cells; Gastric cancer): 43%
- viability at 20 µM (cancer stem cells; Gastric cancer): 37%
- viability at 10 µM (cancer stem cells; Gastrointestinal tumor): 54%
- viability at 20 µM (cancer stem cells; Gastrointestinal tumor): 44%
- viability at 10 µM (cancer stem cells; Glioma): 71%
- viability at 20 µM (cancer stem cells; Glioma): 65%
- viability at 10 µM (cancer stem cells; [4]): 56%
- viability at 20 µM (cancer stem cells; [4]): 47%
- viability at 10 µM (cancer stem cells; Laryngeal cancer): 64%
- viability at 20 µM (cancer stem cells; Laryngeal cancer): 53%
- viability at 10 µM (cancer stem cells; Liver cancer): 52%
- viability at 20 µM (cancer stem cells; Liver cancer): 46%
- viability at 10 µM (cancer stem cells; Lung adenocarcinoma): 46%
- viability at 20 µM (cancer stem cells; Lung adenocarcinoma): 34%
- viability at 10 µM (cancer stem cells; Lung cancer): 42%
- viability at 20 µM (cancer stem cells; Lung cancer): 29%
- viability at 10 µM (cancer stem cells; Malignant melanoma): 62%
- viability at 20 µM (cancer stem cells; Malignant melanoma): 54%
- viability at 10 µM (cancer stem cells; Nasopharynx cancer): 45%
- viability at 20 µM (cancer stem cells; Nasopharynx cancer): 37%
- viability at 10 µM (cancer stem cells; Ovarian cancer): 64%
- viability at 20 µM (cancer stem cells; Ovarian cancer): 55%
- viability at 10 µM (cancer stem cells; Pancreatic cancer): 54%
- viability at 20 µM (cancer stem cells; Pancreatic cancer): 36%
- viability at 10 µM (cancer stem cells; Prostate cancer): 44%
- viability at 20 µM (cancer stem cells; Prostate cancer): 31%
- viability at 10 µM (cancer stem cells; Retinoblastoma): 55%
- viability at 20 µM (cancer stem cells; Retinoblastoma): 34%
- viability at 10 µM (cancer stem cells; Skin cancer): 55%
- viability at 20 µM (cancer stem cells; Skin cancer): 43%
- Content of TNF-α in culture supernatant of synoviocyte (x ± s) [1]: 0.58 ± 0.056 ng/mL
- Content of PGE2 in culture supernatant of synoviocyte (x ± s) [2]: 26.48 ± 2.57 ng/mL
- Content of IL-1β in culture supernatant of synoviocyte (x ± s) [3]: 0.39 ± 0.067 ng/mL
